Test results as given in patent US11878972B2, “Treatment of neurological disorders” (TORQUR AG, priority 2016, dated 2024).

Tests used:
[1] = tested on: mTOR signaling cascade (phosphorylation of S6rP and AKT); experiment: Target engagement in brain and thigh muscle (western blot); format: in vivo, mouse; conditions: single oral 50 mg/kg
Procedure: Tissue was snap frozen in liquid nitrogen and stored at −80° C. Tissue was thawed and lysed in RIPA buffer 1 ml/half brain. Complete protease inhibitor and PhosStop phosphatase inhibitor (Roche) was added to the buffer before lysis. Tissue was homogenized manually and centrifuged twice at 16000 rpm, 4° C. for 20 minutes. Supernatant was frozen with 10% glycerol at −80° C. Protein concentration was performed using Bradford reagent. For western blot analysis of AKT and S6rP phosphorylation, 30 μg of protein was denatured with β-mercaptoethanol at 95° C. and separated on SDS page gels at 100 V. Then proteins were transferred to a nitrocellulose membrane (Bio-Rad, USA) at 80 V. Non-specific binding was blocked with 5% bovine serum albumin (BSA) (Sigma-Aldrich, USA). Membranes were incubated over night with primary antibody dissolved in TBST, 5% BSA at 4° C. and with secondary antibody coupled to horseradish peroxidase (GE Healthcare, UK) for 1 hour at RT and washed. Imaging of protein bands was performed using Luminol (Biozym, Hamburg, Germany. On a Li-Cor Odyssey FC reader. Quantification of S6-phosphorylation was determined with the same imaging system.
The following antibodies were used: • AKT, P-AKT (S473), S6rP, P-S6rP(S235/236): Cell Signaling (UK) • β-actin: Sigma Aldrich, USA

[2] = tested on: 51Q-HTT-Exon1-eGFP transfected HEK cells; experiment: Filter trap assay of mutHTT aggregates; format: cell-based, human; conditions: 8 hours; Cpd. 3 400, 1230 nM; Cpd. 8 130, 1230 nM; INK128 100 nM; Rapamycin 400 nM
Procedure: HEK cells were transiently transfected with pcDNA3.1/V5-His vector from Clontech (Mountain View, USA) containing the expression sequence for Exon1 of HTT with a 19Q (no aggregation) or 51Q extension and enhanced green fluorescence protein (eGFP) tag using Attractene Transfection Reagent (Qiagen, Netherlands). 1×10^6 cells were seeded in a 6 well plate. On the next day 2 μg DNA were mixed with 95.5 μl transfection media and 4.5 μl transfection reagent. After an incubation time of 15 min the mixture was added to the cells. After 72 hours cells were harvested or fixed for analysis.
HEK cells transfected with 19Q- or 51Q-HTT-Exon1-eGFP were treated with DMSO control. 51Q-HTT-Exon I-eGFP HEK cells form aggregates. These cells were treated with Cpd. 3 (400, 1230 nM), Cpd. […] After 30 min incubation on ice, cells were homogenized (Dounce Homogenizer, Thermo Fisher, USA). 50 μg of protein solution in PBS was supplemented with 2% SDS (Roth, Germany). Samples were sucked through a nitrocellulose membrane (0.45 μm) and washed twice with PBS buffer.

[3] = tested on: autophagic markers LC3II and p62; experiment: Induction of autophagy in brain of mice (western blot LC3, p62); format: in vivo, mouse; conditions: single oral administration 50 mg/kg
Procedure: In order to investigate whether mTOR inhibition by Cpd. 3 and Cpd. 8 induces autophagy—the essential mechanism for huntingtin aggregate clearance-in the brain, BALB/c nude mice were treated with Cpd. 3 and Cpd. 8 as described in sample 5.

in vivo = conditions: B57BL/6J, mouse
Procedure: 8, 50 mg/kg was administered to B57BL/6J mice by gavage. Animals were housed in temperature controlled rooms with free access to food and water. Test items were weighed in a glass vial and dissolved first in DMSO. Tween 80 was added subsequently and finally, the formulation was completed with HPβCD 20%. […] Blood was collected in tubes containing K3-EDTA and stored on ice until centrifugation at 3000×g (10 min. 4° C.). The plasma supernatant was separated and kept at −20° C. until being assayed. Thigh muscle and brain of mice were snap frozen. The brain and muscle samples were homogenized in PBS using the Precellys 24/Dual homogeniser.
Samples were analyzed by LC-MS. Calibration standards were prepared by spiking 20 μl of drug free blank plasma with calibration solution. […] Samples were vigorously shaken and centrifuged for 10 minutes at 6000 g and 20° C. […] An aliquot was transferred to 200 μl sampler vials and subsequently subjected to LC-MS with an injection volume of 1.5 μl.

pPKB S473 in A2058 cells = experiment: In-cell Western blot, pPKB S473; format: cell-based; conditions: Homo sapiens, treated for 1 hour, normalized to α-tubulin
Procedure: Cells are fixed with 4% paraformaldehyde for 30 minutes at room temperature, washed 2 times with 1% BSA in PBS, permeabilized with 0.1% Triton X-100 in PBS/1% BSA for 30 minutes at room temperature and blocked with 5% goat serum in PBS/1% BSA/0.1% Triton X-100 for 30 minutes at room temperature. […] Cells are washed 3 times 5 minutes with PBS/1% BSA/0.1% triton and plate scanned with the Odyssey Infrared Scanning system using both 700 and 800 nm channels. […] To correct for background staining in the data analysis wells are treated only with secondary antibodies.
For data analysis the mean background signal from channel 700 nm and 800 nm are subtracted from each signal in channel 700 nm and 800 nm, respectively.
IC50 values of each compound are determined by plotting the normalized pPBK S473 and pS6 S235/S236 signals, respectively, versus the compound concentrations (in logarithmic scale) and then by fitting a sigmoidal dose-response curve with variable slope to the data using GraphPad™ Prism.

## Nc1cc(C(F)F)c(-c2nc(N3C4CCC3COC4)nc(N3C4CCC3COC4)n2)cn1 [Compound 3, 5-(4-(3-oxa-8-azabicyclo[3.2.1]octan-8-yl)-6-(3-oxa-8-azabicyclo[3.2.1]octan-8-yl)-1,3,5-triazin-2-yl)-4-(difluoromethyl)pyridin-2-amine]
[1]; B57BL/6J mice
  phosphorylation of S6rP and AKT in brain and thigh muscle: significantly reduced phosphorylation of S6rP and AKT
[1]; mice, 30 minutes to 8 hours
  S6 phosphorylation in brain lysates: reduction of S6 phosphorylation
  S6 phosphorylation in thigh muscle lysates: reduction of S6 phosphorylation
[2]
  mutHTT aggregates (filter trap): significant reduction of cytotoxic mutHTT aggregates
[3]
  autophagic marker LC3II in brain: time-dependent increase
  autophagic marker p62 in brain: decrease
In vivo; half-life
  half-life: 5 h
In vivo; po, 50 mg/kg
  AUC: 20.5 µg·h/mL
  Tmax: 0.5 h
In vivo; po, 50 mg/kg, Brain t1/2
  half-life: 5 h
In vivo; po, 50 mg/kg, Plasma t1/2
  half-life: 5.3 h
In vivo; po, 50 mg/kg, half-life in mice (estimated)
  half-life: 4.7 to 4.8 h

## C[C@H]1COCCN1c1nc(-c2cnc(N)cc2C(F)F)nc(N2CCOCC2)n1 [Compound 8, (S)-4-(difluoromethyl)-5-(4-(3-methylmorpholino)-6-morpholino-1,3,5-triazin-2-yl)pyridin-2-amine]
pPKB S473 in A2058 cells
  IC50: 0.074 µM
